Measurements: patent US12178809B2, “Pyridinyl sulfonamide derivatives, pharmaceutical compositions and uses thereof” (Boehringer Ingelheim International GmbH, priority 2018, dated 2024)
Counter-ions that a name gives are not always drawn. Like-named read-outs stand apart in the source and are kept apart here.

Experiments:
[1] = molecular target: human AOC3 enzyme (Homo sapiens (Human), UniProt Q16853); experiment: AOC3 biochemical assay (MAO-Glo)
Description: The MAO-Glo™ Assay (commercially available from PROMEGA, #V1402) provides a sensitive method for the measurement of monoamine oxidase (MAO) activity (Valley, M. P. et al., 2006, Anal. Biochem. 359: 238-246) from a variety of tissues, biofluids or recombinant expressed or purified enzymes. As substrate a derivate of the beetle luciferin ((4S)-4,5-dihydro-2-(6-hydroxybenzothiazolyl)-4-thiazole-carboxylic acid) is used, which is oxidized at a primary amine moiety. After a spontaneous elimination and a catalyzed esterase reaction, the turnover of the luciferine by the luciferase is recorded as a signal of AOC3 activity.
An aliquot of 3 μL of the compound dilution is added to a 384 well plate (Optiplate, PS, flat bottom, white, PERKIN ELMER, #6007290) with a final DMSO concentration of 6.6%. Recombinant CHO cells, overexpressing the human (1500 cells/well), mouse (1000 cells/well) or rat (500 cells/well) AOC3 enzyme are diluted in reaction buffer and added in a volume of 15 μL to the wells. After incubation for 20 minutes at 37° C., 2 μL of MAO substrate (dissolved in DMSO at 16 mM, adjusted to assay concentration in reaction buffer to a final assay concentration of 20 μM) is added and further incubated for 60 minutes at 37° C. The turnover of the substrate is determined by the addition of 20 μL of the detection-mix which was generated by the addition of reconstitution buffer with esterase (PROMEGA, #V1402) to the luciferine detection reagent (PROMEGA, #V1402). After an incubation period of 20 minutes, the luminescent signal is measured with Envision 2104 Multilabel Reader (PERKIN ELMER).

[2] = molecular target: AOC2 (Homo sapiens (Human), UniProt O75106); experiment: AOC2 biochemical assay (Amplex Red)
Procedure: An aliquot of 5 μL of the compound dilution is added to a 96 well plate (flat bottom F, black, GREINER bio-one, #655900) in a DMSO concentration of 2%. […] Cells are cultured for 3 days in EMEM culture medium containing 10% FCS (#04-00-1A, Biological Industries). After washing twice with ice cold PBS, cells are lysed by mechanic homogenation and cleared supernatants are shock frozen in liquid nitrogen and stored at -80° C. […] An Aliquot of 45 μL is added to the compound dilution and incubated for 30 min at 37° C. The enzymatic reaction is started with the addition of 50 μL of Amplex® Red reaction mix (final assay concentration: 100 mM sodiumphosphate, 120 μM Amplex® Red reagent (#A22177 Molecular Probes), 1.5 U/mL Horseradish Peroxidase (#P8375 Sigma-Aldrich), 2 mM phenylethylamine (#[…] Sigma-Aldrich), 0.05% Pluronic F-127 (#P3000MP Sigma-Aldrich), pH 7.4, 37° C.). The turnover per time of the substrate is determined directly with a fluorescence reader (Ex 540 nm/Em 590 nm) like Envision 2104 Multilabel Reader (PERKIN ELMER) for 60 min.

[3] = molecular target: AOC1 (Homo sapiens (Human), UniProt P19801); experiment: AOC1 biochemical assay (Amplex Red)
Procedure: The Amplex® Red Assay (available from Thermo Fisher Scientific) provides a sensitive method for the detection of H2O2 generated during enzymatic reactions like the amine oxidation catalyzed by AOC1. The assay reagent is a colorless substrate (N-acetyl-3,7-dihydroxyphenoxazine) that reacts in a 1:1 stoichiometry with hydrogen peroxide (H2O2) to produce the fluorescent dye resorufin (7-hydroxyphenoxazin-3-one, excitation/emission maxima=570/585 nm).
An aliquot of 3 μL of the compound dilution is added to a 384 well plate (Optiplate, PS, flat bottom F, black, PERKIN ELMER, #6007270) in a DMSO concentration of 6.6%.
An AOC1 enzyme aliquot (#8297-AO-010, R&D Systems) is thawed on ice, diluted in reaction buffer and added in a volume of 7 μL to the wells to give a final assay concentration of 1 ng/well. After incubation of inhibitor and enzyme for 30 minutes at 37° C., the enzymatic reaction is started with the addition of 10 μL of Amplex® Red reaction mix (final assay concentration: 100 mM sodiumphosphate, 120 μM Amplex® Red reagent (#A22177 Molecular Probes), 1.5 U/mL Horseradish Peroxidase (#P8375 Sigma-Aldrich), 200 μM putrescine (#P7505 Sigma-Alrdich), 0.05% Pluronic F-127 (#P3000MP Sigma-Aldrich), pH 7.4, 37° C.).
After an incubation for 30 minutes at 37° C. the turnover of the substrate is determined directly (or after the addition of an excess of an amine-oxidase inhibitor) with a fluorescence reader (Ex 540 nm/Em 590 nm) like Envision 2104 Multilabel Reader (PERKIN ELMER).

[4] = comparison table, unit μM, read-out: IC50 AOC1
[5] = comparison table, read-out: IC50 AOC3
[6] = comparison table, read-out: IC50 AOC2

Sequence of AOC2 (O75106 whole entry): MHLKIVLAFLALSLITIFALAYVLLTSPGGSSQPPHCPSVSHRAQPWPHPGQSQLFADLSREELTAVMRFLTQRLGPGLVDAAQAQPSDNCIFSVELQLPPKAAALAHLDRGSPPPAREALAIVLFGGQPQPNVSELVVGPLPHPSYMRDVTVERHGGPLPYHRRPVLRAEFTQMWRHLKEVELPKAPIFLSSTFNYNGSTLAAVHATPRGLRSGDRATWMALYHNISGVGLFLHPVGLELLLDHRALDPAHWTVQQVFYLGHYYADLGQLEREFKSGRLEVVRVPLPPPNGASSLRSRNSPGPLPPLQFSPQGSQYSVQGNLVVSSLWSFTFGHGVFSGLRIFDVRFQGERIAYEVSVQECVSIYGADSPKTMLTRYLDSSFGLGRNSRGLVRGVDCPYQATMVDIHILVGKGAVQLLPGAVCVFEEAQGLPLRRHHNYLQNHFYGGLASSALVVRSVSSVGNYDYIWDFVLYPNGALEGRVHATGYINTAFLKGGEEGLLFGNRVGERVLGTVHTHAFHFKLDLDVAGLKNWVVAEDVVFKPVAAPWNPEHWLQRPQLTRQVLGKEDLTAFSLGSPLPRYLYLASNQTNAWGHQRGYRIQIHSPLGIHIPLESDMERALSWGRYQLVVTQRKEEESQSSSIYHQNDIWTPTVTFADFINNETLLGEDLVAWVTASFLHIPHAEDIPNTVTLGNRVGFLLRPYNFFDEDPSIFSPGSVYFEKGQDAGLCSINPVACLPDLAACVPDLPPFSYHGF
Sequence of AOC1 (P19801 20-751): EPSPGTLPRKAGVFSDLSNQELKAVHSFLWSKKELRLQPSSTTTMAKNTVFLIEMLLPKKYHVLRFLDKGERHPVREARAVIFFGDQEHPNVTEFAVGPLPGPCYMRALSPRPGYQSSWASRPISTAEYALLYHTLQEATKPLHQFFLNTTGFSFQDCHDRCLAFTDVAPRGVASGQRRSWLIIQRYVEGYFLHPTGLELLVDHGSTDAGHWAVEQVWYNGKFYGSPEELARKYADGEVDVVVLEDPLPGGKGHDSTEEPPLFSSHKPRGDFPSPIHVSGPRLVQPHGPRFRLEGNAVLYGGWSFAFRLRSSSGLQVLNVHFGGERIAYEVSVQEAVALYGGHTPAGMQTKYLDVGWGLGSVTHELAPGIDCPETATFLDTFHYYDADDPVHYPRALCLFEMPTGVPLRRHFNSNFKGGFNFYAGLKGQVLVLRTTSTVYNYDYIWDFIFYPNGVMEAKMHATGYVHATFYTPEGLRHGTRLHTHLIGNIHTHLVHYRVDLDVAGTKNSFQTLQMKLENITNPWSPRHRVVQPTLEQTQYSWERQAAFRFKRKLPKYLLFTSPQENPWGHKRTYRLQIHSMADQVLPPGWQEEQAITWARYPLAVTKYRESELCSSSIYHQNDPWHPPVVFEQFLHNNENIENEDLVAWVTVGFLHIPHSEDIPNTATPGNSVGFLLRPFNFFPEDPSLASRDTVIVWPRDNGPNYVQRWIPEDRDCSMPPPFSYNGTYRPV
Sequence of human AOC3 enzyme (Q16853 whole entry): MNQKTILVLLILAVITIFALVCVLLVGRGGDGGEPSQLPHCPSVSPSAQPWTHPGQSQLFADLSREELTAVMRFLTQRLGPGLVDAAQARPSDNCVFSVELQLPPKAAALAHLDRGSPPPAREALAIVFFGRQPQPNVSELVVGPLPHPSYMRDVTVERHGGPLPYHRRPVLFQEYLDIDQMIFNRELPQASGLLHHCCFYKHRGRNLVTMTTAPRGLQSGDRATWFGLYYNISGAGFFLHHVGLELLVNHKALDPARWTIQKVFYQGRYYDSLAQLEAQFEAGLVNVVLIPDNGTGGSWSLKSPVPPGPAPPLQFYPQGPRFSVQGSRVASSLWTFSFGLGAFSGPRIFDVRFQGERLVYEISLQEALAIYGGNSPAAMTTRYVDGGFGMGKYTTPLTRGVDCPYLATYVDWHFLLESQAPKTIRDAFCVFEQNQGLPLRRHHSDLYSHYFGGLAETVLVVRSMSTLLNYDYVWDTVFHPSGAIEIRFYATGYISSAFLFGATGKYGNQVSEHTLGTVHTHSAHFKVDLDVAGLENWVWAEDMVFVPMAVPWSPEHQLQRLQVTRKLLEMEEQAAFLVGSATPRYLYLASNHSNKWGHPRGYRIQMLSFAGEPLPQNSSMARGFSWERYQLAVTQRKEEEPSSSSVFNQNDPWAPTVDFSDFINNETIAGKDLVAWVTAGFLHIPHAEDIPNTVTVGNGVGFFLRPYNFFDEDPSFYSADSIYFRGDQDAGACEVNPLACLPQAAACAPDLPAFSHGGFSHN

Row | Compound | IC50 ([1]; read-out: AOC3 IC50) | IC50 ([2]; read-out: AOC2 IC50) | IC50 ([3]; read-out: AOC1 IC50) | fold less active against AOC2 as compared to AOC3 (ratio IC50 AOC2/IC50 AOC3) [2] | IC50 [3, 4] | IC50 [1, 5] | IC50 [2, 6] | IC50 ([3]; comparison table, read-out: IC50 AOC1)
1 | CN(C)C(=O)C1CN(S(=O)(=O)c2ccc(OC/C(=C/F)CN)nc2)C1 [Example 28] | 42 nM | 158 nM | > 49.9 µM |  |  |  |  | 
2 | NC/C(=C\F)COc1ccc(S(=O)(=O)N2C[C@H]3C[C@@]3(C(=O)N3CCOCC3)C2)cn1 [Example 30] | 46 nM | 126 nM | 11.4 µM |  |  |  |  | 
3 | NC/C(=C\F)COc1ccc(S(=O)(=O)N2CC(C(N)=O)C2)cn1 [Example 31] | 21 nM | 121 nM | > 50 µM |  |  |  |  | 
4 | NC/C(=C\F)COc1ccc(S(=O)(=O)N2CC(C3CCN(C(=O)C4CC4)CC3)C2)cn1 [Example 32] | 17 nM | 73 nM | 39.5 µM |  |  |  |  | 
5 | NC/C(=C\F)COc1ccc(S(=O)(=O)N2CC[C@@H](C(N)=O)C2)cn1 [Example 33] | 15 nM | 49 nM | 33 µM |  |  |  |  | 
6 | CCNC(=O)C1(C)CCN(S(=O)(=O)c2ccc(OC/C(=C/F)CN)nc2)CC1 [Example 34] | 14 nM | 14 nM | 15.8 µM |  |  |  |  | 
7 | NC/C(=C\F)COc1ccc(S(=O)(=O)N2CC[C@H](O)C2)cn1 [Example 35, (S)-1-[6-((E)-2-Aminomethyl-3-fluoro-allyloxy)-pyridine-3-sulfonyl]-pyrrolidin-3-ol] | 38 nM | 207 nM | > 50 µM | ca. 5 fold | > 50 µM |  |  | 
8 | NC/C(=C\F)COc1ccc(S(=O)(=O)N2CC[C@@H](O)C2)cn1 [Example 36] | 67 nM | 551 nM | > 50 µM |  |  |  |  | 
9 | NC/C(=C\F)COc1ccc(S(=O)(=O)N2CC(F)(F)C2)cn1 [Example 37] | 15 nM | 451 nM | 22.6 µM |  |  |  |  | 
10 | NC/C(=C\F)COc1ccc(S(=O)(=O)N2CCCC2)cn1 [Example 38] | 13 nM | 278 nM | > 50 µM |  |  |  |  | 
11 | NC/C(=C\F)COc1ccc(S(=O)(=O)N2CCC2)cn1 [Example 39] | 19 nM | 262 nM | 17 µM |  |  |  |  | 
12 | COC1CCN(S(=O)(=O)c2ccc(OC/C(=C/F)CN)nc2)C1.O=C(O)C(F)(F)F (stereo not drawn) [Example 40] | 26 nM | 125 nM | > 50 µM | ca. 5 fold | > 50 µM | 26 nM | 125 nM | 
13 | NC/C(=C\F)COc1ccc(S(=O)(=O)N2CC3CC3C2)cn1 (stereo not drawn) [Example 41] | 5 nM | 123 nM | 25.4 µM |  |  |  |  | 
14 | COC1CN(S(=O)(=O)c2ccc(OC/C(=C/F)CN)nc2)C1 [Example 42] | 20 nM | 87 nM | > 50 µM |  |  | 20 nM | 87 nM | > 50 µM
15 | NC/C(=C\F)COc1ccc(S(=O)(=O)N2CCC(F)(F)C2)cn1 [Example 43] | 16 nM | 69 nM | 36.5 µM |  |  |  |  | 
16 | CNC(=O)C1CCN(S(=O)(=O)c2ccc(OC/C(=C/F)CN)nc2)CC1 [Example 44, 1-[6-((E)-2-Aminomethyl-3-fluoro-allyloxy)-pyridine-3-sulfonyl]-piperidine-4-carboxylic acid methylamide trifluoroacetate] | 14 nM | 574 nM | > 50 µM |  |  |  |  | 
